In the kinase profiling compilation of Christmann-Franck et al. (2016):

Assays:
Assay in all cases: radiometric filter-binding kinase assay, Kinase HotSpot
Conditions in all cases: compound 0.5 µM; ATP 10 µM
[1] = molecular target: STK3 (human) (UniProt Q13188)
[2] = molecular target: BLK (human) (UniProt P51451)
[3] = molecular target: DYRK4 (human) (UniProt Q9NR20)
[4] = molecular target: DCLK2 (human) (UniProt Q8N568)
[5] = molecular target: EPHA7 (human) (UniProt Q15375)
[6] = molecular target: SRPK1 (human) (UniProt Q96SB4)
[7] = molecular target: CDK1 CCNB1 (human) (UniProt P06493+P14635)
[8] = molecular target: MAPK12 (human) (UniProt P53778)
[9] = molecular target: TGFBR1 (human) (UniProt P36897)
Sequence of TGFBR1 (human) (P36897 whole entry, looked up): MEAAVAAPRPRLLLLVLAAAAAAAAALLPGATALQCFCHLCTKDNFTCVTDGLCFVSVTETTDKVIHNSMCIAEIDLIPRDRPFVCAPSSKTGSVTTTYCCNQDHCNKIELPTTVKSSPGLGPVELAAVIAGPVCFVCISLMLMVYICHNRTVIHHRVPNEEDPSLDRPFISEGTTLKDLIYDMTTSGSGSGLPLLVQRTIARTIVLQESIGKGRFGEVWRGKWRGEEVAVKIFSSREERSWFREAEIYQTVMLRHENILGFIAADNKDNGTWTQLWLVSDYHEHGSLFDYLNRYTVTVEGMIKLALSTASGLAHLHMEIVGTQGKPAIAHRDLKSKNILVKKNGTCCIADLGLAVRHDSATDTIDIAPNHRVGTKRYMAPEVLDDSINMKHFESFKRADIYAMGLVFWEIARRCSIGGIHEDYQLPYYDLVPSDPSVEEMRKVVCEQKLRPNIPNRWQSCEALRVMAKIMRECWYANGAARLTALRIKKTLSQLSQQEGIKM

[10] = molecular target: CDK4 CCND3 (human) (UniProt P30281+P11802)
[11] = molecular target: DAPK1 (human) (UniProt P53355)
Sequence of DAPK1 (human) (P53355 whole entry, looked up): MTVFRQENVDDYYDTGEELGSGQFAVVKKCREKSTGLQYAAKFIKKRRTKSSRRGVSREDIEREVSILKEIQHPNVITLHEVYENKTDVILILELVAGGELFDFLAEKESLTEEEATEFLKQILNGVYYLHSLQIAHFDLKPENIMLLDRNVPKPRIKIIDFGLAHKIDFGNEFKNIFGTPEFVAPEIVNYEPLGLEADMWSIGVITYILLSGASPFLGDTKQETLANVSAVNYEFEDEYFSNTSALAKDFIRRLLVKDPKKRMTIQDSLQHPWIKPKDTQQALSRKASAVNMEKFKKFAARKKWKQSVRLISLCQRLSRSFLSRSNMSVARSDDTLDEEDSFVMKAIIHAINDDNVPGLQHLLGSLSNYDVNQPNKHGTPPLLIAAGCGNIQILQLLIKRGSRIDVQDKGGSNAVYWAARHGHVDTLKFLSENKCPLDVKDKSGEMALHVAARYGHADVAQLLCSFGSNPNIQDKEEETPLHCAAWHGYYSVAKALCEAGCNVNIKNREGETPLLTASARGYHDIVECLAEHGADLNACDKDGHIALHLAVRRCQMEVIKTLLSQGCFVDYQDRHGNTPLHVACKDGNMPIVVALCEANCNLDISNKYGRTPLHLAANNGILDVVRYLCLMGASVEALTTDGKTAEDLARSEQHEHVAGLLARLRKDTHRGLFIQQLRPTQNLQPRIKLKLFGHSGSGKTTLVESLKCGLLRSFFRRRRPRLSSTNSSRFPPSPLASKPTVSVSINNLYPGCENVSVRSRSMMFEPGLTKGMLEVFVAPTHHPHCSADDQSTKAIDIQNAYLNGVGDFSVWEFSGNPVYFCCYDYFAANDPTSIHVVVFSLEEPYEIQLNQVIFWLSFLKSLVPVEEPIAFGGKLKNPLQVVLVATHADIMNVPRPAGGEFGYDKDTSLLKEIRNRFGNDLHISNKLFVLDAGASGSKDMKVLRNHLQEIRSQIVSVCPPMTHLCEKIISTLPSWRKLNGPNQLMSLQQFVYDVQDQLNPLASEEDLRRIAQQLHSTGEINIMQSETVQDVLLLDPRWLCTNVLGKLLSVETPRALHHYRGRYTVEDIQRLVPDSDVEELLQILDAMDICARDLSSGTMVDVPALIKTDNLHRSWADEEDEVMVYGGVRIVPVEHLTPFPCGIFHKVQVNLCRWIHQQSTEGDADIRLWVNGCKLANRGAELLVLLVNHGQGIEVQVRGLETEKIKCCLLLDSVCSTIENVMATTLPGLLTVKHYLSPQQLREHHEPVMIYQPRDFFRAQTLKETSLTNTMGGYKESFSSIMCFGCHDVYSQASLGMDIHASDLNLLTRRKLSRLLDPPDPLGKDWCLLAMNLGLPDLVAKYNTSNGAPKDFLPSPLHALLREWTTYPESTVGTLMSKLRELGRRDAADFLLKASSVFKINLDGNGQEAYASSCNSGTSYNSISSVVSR

[12] = molecular target: NEK4 (human) (UniProt P51957)
[13] = molecular target: CSNK2A1 (human) (UniProt P68400)
[14] = molecular target: SGK2 (human) (UniProt Q9HBY8)
[15] = molecular target: RPS6KA4 KD2 (human) (UniProt O75676)
[16] = molecular target: PDGFRB (human) (UniProt P09619)
[17] = molecular target: CDK6 CCND1 (human) (UniProt Q00534+P24385)
Sequence of CDK6 CCND1 (human) (P24385 whole entry, looked up): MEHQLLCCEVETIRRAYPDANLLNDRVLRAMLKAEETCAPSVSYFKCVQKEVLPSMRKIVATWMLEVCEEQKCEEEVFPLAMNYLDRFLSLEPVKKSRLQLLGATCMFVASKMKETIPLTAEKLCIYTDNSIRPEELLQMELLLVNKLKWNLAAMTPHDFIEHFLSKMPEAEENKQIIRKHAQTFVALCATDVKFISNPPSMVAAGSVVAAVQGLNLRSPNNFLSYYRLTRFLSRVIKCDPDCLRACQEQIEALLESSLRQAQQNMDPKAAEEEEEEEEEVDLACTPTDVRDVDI
Sequence of CDK6 CCND1 (human) (Q00534 whole entry, looked up): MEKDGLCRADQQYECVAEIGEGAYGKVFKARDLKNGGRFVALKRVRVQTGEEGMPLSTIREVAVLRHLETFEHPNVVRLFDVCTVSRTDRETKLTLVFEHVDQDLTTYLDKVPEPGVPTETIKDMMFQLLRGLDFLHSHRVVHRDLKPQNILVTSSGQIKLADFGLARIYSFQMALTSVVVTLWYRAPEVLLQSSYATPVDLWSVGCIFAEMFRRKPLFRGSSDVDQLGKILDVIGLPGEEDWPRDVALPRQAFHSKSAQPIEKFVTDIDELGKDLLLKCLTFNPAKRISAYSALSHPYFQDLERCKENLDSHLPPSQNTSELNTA

[18] = molecular target: MAPKAPK5 (human) (UniProt Q8IW41)
Sequence of MAPKAPK5 (human) (Q8IW41 whole entry, looked up): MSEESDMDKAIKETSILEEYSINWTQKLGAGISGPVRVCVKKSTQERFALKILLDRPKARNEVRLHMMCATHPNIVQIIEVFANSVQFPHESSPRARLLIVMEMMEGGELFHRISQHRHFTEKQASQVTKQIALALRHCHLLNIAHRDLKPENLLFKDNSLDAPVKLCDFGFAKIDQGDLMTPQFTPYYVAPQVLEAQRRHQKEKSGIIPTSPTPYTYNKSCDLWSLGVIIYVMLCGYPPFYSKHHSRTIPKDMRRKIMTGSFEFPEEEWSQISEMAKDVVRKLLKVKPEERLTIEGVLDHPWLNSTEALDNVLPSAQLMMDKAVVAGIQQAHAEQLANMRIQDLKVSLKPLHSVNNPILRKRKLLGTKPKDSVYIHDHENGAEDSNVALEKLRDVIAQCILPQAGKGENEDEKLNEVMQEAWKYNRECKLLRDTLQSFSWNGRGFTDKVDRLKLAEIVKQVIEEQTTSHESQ

[19] = molecular target: BRSK1 (human) (UniProt Q8TDC3)
[20] = molecular target: DYRK1B (human) (UniProt Q9Y463)
[21] = molecular target: AKT3 (human) (UniProt Q9Y243)
Sequence of AKT3 (human) (Q9Y243 whole entry, looked up): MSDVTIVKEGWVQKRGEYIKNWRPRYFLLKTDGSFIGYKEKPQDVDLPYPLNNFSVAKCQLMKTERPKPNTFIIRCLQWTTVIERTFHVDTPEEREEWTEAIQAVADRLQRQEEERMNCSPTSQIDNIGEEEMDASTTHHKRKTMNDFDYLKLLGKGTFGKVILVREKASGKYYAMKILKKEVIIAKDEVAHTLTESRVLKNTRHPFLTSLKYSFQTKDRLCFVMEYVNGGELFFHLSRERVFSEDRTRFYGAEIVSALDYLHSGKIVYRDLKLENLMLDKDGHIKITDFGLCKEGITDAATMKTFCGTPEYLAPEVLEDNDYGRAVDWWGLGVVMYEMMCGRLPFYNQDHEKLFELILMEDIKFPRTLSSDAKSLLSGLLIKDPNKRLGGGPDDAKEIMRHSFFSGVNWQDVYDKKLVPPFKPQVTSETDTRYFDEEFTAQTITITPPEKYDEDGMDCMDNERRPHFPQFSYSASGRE

[22] = molecular target: MAPK1 (human) (UniProt P28482)
[23] = molecular target: PRKCH (human) (UniProt P24723)
[24] = molecular target: ABL1 (human) (UniProt P00519)
[25] = molecular target: ADRBK2 (human) (UniProt P35626)
[26] = molecular target: CSNK1G1 (human) (UniProt Q9HCP0)
[27] = molecular target: RPS6KA6 KD1 KD2 (human) (UniProt Q9UK32)
[28] = molecular target: SRMS (human) (UniProt Q9H3Y6)
Sequence of SRMS (human) (Q9H3Y6 whole entry, looked up): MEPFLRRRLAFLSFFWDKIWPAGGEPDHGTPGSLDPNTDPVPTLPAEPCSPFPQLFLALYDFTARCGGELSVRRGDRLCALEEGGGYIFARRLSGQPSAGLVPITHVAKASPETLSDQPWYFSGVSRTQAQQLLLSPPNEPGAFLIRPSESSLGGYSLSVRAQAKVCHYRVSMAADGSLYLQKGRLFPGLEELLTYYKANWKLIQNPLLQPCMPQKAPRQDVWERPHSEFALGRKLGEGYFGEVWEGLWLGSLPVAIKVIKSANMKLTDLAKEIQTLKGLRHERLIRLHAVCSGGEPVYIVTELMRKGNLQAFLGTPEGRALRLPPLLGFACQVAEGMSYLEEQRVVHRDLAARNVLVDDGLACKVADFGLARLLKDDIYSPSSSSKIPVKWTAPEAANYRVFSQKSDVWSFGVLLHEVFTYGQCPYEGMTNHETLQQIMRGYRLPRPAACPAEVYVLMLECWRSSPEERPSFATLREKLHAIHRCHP

[29] = molecular target: ACVR1 (human) (UniProt Q04771)
[30] = molecular target: GRK5 (human) (UniProt P34947)
[31] = molecular target: TYRO3 (human) (UniProt Q06418)
[32] = molecular target: TXK (human) (UniProt P42681)
[33] = molecular target: SRPK3 (human) (UniProt Q9UPE1)
Sequence of SRPK3 (human) (Q9UPE1 whole entry, looked up): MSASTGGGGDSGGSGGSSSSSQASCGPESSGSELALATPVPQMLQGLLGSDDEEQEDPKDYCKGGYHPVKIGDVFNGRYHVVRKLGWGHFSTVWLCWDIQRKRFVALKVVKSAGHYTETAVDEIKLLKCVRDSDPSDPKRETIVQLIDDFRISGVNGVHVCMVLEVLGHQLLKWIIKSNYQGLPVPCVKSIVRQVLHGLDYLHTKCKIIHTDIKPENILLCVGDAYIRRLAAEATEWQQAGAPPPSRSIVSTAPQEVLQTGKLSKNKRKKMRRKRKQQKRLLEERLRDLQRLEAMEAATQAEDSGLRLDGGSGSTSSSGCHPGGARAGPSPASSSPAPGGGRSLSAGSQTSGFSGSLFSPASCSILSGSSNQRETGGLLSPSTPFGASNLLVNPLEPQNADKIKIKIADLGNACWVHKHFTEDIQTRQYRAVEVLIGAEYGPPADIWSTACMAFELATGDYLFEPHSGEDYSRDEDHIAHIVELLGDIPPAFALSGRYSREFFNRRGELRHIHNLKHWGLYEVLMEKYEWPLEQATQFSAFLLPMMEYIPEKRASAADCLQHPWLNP

[34] = molecular target: EPHA5 (human) (UniProt P54756)
[35] = molecular target: CDK9 CCNT1 (human) (UniProt P50750+O60563)
[36] = molecular target: CAMK1G (human) (UniProt Q96NX5)
[37] = molecular target: NEK1 (human) (UniProt Q96PY6)
[38] = molecular target: NEK6 (human) (UniProt Q9HC98)
Sequence of NEK6 (human) (Q9HC98 whole entry, looked up): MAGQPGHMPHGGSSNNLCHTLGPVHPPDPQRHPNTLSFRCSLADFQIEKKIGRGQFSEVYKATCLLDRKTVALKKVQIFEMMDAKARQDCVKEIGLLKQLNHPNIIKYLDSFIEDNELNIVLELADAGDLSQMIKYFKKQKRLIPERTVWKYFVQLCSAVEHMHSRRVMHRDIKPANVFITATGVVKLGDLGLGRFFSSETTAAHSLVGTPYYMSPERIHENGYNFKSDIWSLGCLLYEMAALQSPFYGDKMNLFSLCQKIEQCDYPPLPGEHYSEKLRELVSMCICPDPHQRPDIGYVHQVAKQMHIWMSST

[39] = molecular target: FGR (human) (UniProt P09769)
[40] = molecular target: RPS6KA1 KD1 KD2 (human) (UniProt Q15418)
[41] = molecular target: IKBKB (human) (UniProt O14920)

`CCn1cnc2c(Nc3cccc(Cl)c3)nc(N[C@@H]3CCCC[C@@H]3N)nc21` showed a residual activity [1] of 83.9%, a residual activity [2] of 87.1% and a residual activity [3] of 95.1%. For the same compound, the residual activity [4] was 93.1%, the residual activity [5] was 87.6% and the residual activity [6] was 94.2%. For the same compound, the residual activity [7] was 16.4%, the residual activity [8] was 96.6% and the residual activity [9] was 95.6%. It also gave a residual activity [10] of 71.5%, a residual activity [11] of 79.1% and a residual activity [12] of 96.8%. The residual activity [13] was 84.2%, the residual activity [14] was 98.2% and the residual activity [15] was 88.2%. The residual activity [16] was 99.6%, the residual activity [17] was 60.9% and the residual activity [18] was 98.3%. The residual activity [19] was 92.4%, the residual activity [20] was 94.4% and the residual activity [21] was 95.8%. The residual activity [22] was 91.7%, the residual activity [23] was 77.6% and the residual activity [24] was 94%. For the same compound, the residual activity [25] was 89.2%, the residual activity [26] was 56.8% and the residual activity [27] was 75.7%. The residual activity [28] was 85.9%, the residual activity [29] was 92.7% and the residual activity [30] was 106%. The residual activity [31] was 98.3%, the residual activity [32] was 69.1% and the residual activity [33] was 94.9%. For the same compound, the residual activity [34] was 73.9%, the residual activity [35] was 53.7% and the residual activity [36] was 94.1%. It also gave a residual activity [37] of 95%, a residual activity [38] of 102% and a residual activity [39] of 45.8%.
In the case of `COc1cc2ncnc(N3CCN(C(=O)Nc4ccc(Oc5ccccc5)cc4)CC3)c2cc1OC`, the residual activity [1] is reported as 93.3%, the residual activity [2] is reported as 113% and the residual activity [3] is reported as 79.8%. The residual activity [4] was 90.6%, the residual activity [5] was 96.8% and the residual activity [6] was 97.5%. It also gave a residual activity [7] of 105%, a residual activity [8] of 94.7% and a residual activity [9] of 99.5%. It also gave a residual activity [10] of 90.3%, a residual activity [11] of 97.5% and a residual activity [12] of 94.4%. For the same compound, the residual activity [13] was 96.2%, the residual activity [14] was 96.7% and the residual activity [15] was 96.2%. For the same compound, the residual activity [17] was 95.1%, the residual activity [18] was 118% and the residual activity [19] was 86.4%. The residual activity [20] was 93.5%, the residual activity [21] was 97.5% and the residual activity [22] was 83.9%. For the same compound, the residual activity [23] was 86.1%, the residual activity [24] was 97.4% and the residual activity [25] was 106%. For the same compound, the residual activity [26] was 81.6%, the residual activity [27] was 92% and the residual activity [28] was 93.6%. It also gave a residual activity [29] of 100%, a residual activity [30] of 82.2% and a residual activity [31] of 99.6%. It also gave a residual activity [32] of 99.3%, a residual activity [33] of 97.3% and a residual activity [34] of 98.3%. The residual activity [35] was 97.3%, the residual activity [36] was 100% and the residual activity [37] was 92.6%. The residual activity [40] was 82%, the residual activity [38] was 103% and the residual activity [41] was 102%. It also gave a residual activity [39] of 98.8%.
Work on `COc1cc2ncc(-c3ccccc3)nc2cc1OC` yielded a residual activity [1] of 95.7%, a residual activity [2] of 103% and a residual activity [3] of 112%. For the same compound, the residual activity [4] was 96%, the residual activity [5] was 94.7% and the residual activity [6] was 105%. It also gave a residual activity [7] of 105%, a residual activity [8] of 95.5% and a residual activity [9] of 101%. It also gave a residual activity [10] of 97.5%, a residual activity [11] of 99.7% and a residual activity [12] of 101%. For the same compound, the residual activity [14] was 95.6%, the residual activity [15] was 85.4% and the residual activity [16] was 87.5%. The residual activity [17] was 94.1%, the residual activity [18] was 88.1% and the residual activity [19] was 102%. It also gave a residual activity [20] of 110%, a residual activity [21] of 94.5% and a residual activity [22] of 95.6%. It also gave a residual activity [23] of 107%, a residual activity [24] of 94.1% and a residual activity [25] of 94.3%. For the same compound, the residual activity [26] was 90.1%, the residual activity [27] was 98.5% and the residual activity [28] was 102%. The residual activity [29] was 99.3%, the residual activity [30] was 106% and the residual activity [31] was 100%. The residual activity [32] was 93.4%, the residual activity [33] was 91.1% and the residual activity [34] was 99.9%. For the same compound, the residual activity [35] was 83.2%, the residual activity [36] was 95.1% and the residual activity [37] was 95.9%. For the same compound, the residual activity [40] was 88.4%, the residual activity [38] was 93.8% and the residual activity [41] was 101%. For the same compound, the residual activity [39] was 85.4%.
With `CN([C@@H](Cc1ccc(OS(=O)(=O)c2cccc3cnccc23)cc1)C(=O)N1CCN(c2ccccc2)CC1)S(=O)(=O)c1cccc2cnccc12` the residual activity [1] was 98.8%, the residual activity [2] was 102% and the residual activity [3] was 97.8%. It also gave a residual activity [4] of 94.1%, a residual activity [5] of 102% and a residual activity [6] of 104%. It also gave a residual activity [7] of 108%, a residual activity [8] of 92.2% and a residual activity [10] of 97.8%. For the same compound, the residual activity [11] was 117%, the residual activity [12] was 99.5% and the residual activity [13] was 100%. It also gave a residual activity [14] of 100%, a residual activity [15] of 98.7% and a residual activity [16] of 104%. For the same compound, the residual activity [17] was 91.6%, the residual activity [18] was 97% and the residual activity [19] was 96.4%. The residual activity [20] was 101%, the residual activity [21] was 104% and the residual activity [22] was 95.5%. For the same compound, the residual activity [23] was 89.8%, the residual activity [24] was 100% and the residual activity [25] was 113%. It also gave a residual activity [26] of 102%, a residual activity [27] of 100% and a residual activity [28] of 103%. For the same compound, the residual activity [29] was 95%, the residual activity [30] was 95.6% and the residual activity [31] was 101%. For the same compound, the residual activity [32] was 94.3%, the residual activity [33] was 98% and the residual activity [34] was 102%. The residual activity [35] was 100%, the residual activity [36] was 93.6% and the residual activity [37] was 102%. The residual activity [40] was 109%, the residual activity [38] was 101% and the residual activity [41] was 96.7%. It also gave a residual activity [39] of 99.5%.
For `O=C1NC(=O)/C(=C\c2ccc3nccnc3c2)S1`, the residual activity [1] was 104%, the residual activity [2] was 99.4% and the residual activity [3] was 96.5%. The residual activity [4] was 94.3%, the residual activity [5] was 96.7% and the residual activity [6] was 110%. The residual activity [7] was 93.8%, the residual activity [8] was 96.6% and the residual activity [9] was 98.5%. The residual activity [10] was 93.9%, the residual activity [11] was 105% and the residual activity [12] was 93.1%. For the same compound, the residual activity [13] was 3.08%, the residual activity [14] was 99.3% and the residual activity [15] was 115%. It also gave a residual activity [16] of 99.5%, a residual activity [17] of 97.5% and a residual activity [19] of 92.4%. The residual activity [20] was 31.3%, the residual activity [21] was 104% and the residual activity [22] was 85.2%. It also gave a residual activity [23] of 89.7%, a residual activity [24] of 95.7% and a residual activity [25] of 111%. For the same compound, the residual activity [26] was 101%, the residual activity [27] was 87.6% and the residual activity [28] was 96.6%. For the same compound, the residual activity [29] was 102%, the residual activity [30] was 105% and the residual activity [31] was 99.1%. For the same compound, the residual activity [32] was 96.8%, the residual activity [33] was 91.4% and the residual activity [34] was 99.5%. For the same compound, the residual activity [35] was 87.7%, the residual activity [36] was 105% and the residual activity [37] was 73.6%. It also gave a residual activity [40] of 80.7%, a residual activity [38] of 109% and a residual activity [41] of 96.1%. The residual activity [39] was 96.8%.
